Here are results for 29 compounds from ChEMBL document CHEMBL1128712, “Increasing binding constants of ligands to carbonic anhydrase by using "greasy tails"” (J Med Chem, 1995).

The nature of series [1]: Evaluation of ionization constant between octanol and 20 mM phosphate buffer (pH =7.5). Conditions: octanol/20 mM phosphate buffer. The series is classed as physicochemical.
A short description of series [2]: Partition coefficient (logD7.5). The series is classed as physicochemical. The note with it: octanol/water, pH 7.5.
Series [3] has as its target Carbonic anhydrase 2 (Bos taurus) (UniProt P00921). Put plainly: Evaluation of binding constant to bovine carbonic anhydrase II, measured by fluorescence in 20 mM phosphate buffer (pH=7.5).
Series [4] has the same target. Put plainly: Compound was tested for the binding affinity towards Carbonic anhydrase II by competitive fluorescence assay with dansylamide.

Carbonic anhydrase 2 (Bos taurus), sequence (P00921 2-260 limits assumed): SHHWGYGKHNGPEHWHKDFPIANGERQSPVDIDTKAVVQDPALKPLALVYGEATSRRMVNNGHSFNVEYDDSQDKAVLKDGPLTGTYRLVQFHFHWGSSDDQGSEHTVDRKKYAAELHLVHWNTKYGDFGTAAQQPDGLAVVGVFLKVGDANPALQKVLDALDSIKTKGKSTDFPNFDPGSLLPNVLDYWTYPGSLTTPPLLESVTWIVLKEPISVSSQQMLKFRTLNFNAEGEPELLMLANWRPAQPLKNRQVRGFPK

In the case of `NS(=O)(=O)c1ccc(CNC(=O)C(F)(F)F)cc1`, in series [1], the pKa worked out at 10.1. On to `CCCCCC(=O)NCc1ccc(S(N)(=O)=O)cc1`, for which the logD in series [2] is 1.23. Further, in series [3], the Kb came out at 5.1e+06 M⁻¹. The compound `NS(=O)(=O)c1ccc(C(=O)NCC(F)(F)C(F)(F)C(F)(F)F)cc1` gave a logD in series [2] of 2.04. Moreover, the Kb in series [3] was found to be 1.1e+09 M⁻¹. As for `CCCCC(CC)C(=O)NCc1ccc(S(N)(=O)=O)cc1` (centres undefined), in series [2], the logD was 1.84. In addition, the Kb in series [3] amounted to 7.1e+06 M⁻¹. The corresponding values for `NS(=O)(=O)c1ccc(CNC(=O)CC2CCCCC2)cc1` are 1.62 and 1.3e+07 M⁻¹. Consider `NS(=O)(=O)c1ccc(CNC(=O)C(F)(F)C(F)(F)F)cc1`, for which, in series [1], the pKa amounted to 9.8. Take `CCCCCCNC(=O)c1ccc(S(N)(=O)=O)cc1`: the logD in series [2] is 2.21. For the same compound, the Kb in series [3] was determined as 1.3e+08 M⁻¹. `NS(=O)(=O)c1ccc(C(=O)NCC(F)(F)F)cc1` gave a logD in series [2] of 0.845. Also, the Kb in series [3] is 4.7e+07 M⁻¹.

Regarding `CC(C)CCC(=O)NCc1ccc(S(N)(=O)=O)cc1`, the logD in series [2] is 1.04. For the same compound, the Kb in series [3] is 4.8e+06 M⁻¹. The corresponding values for `CCC(CC)C(=O)NCc1ccc(S(N)(=O)=O)cc1` are 1 and 2.9e+06 M⁻¹. The like results for `NS(=O)(=O)c1ccc(CNC(=O)C2CCCCCC2)cc1` were, in that order, 1.49 and 1e+07 M⁻¹. Regarding `NS(=O)(=O)c1ccc(CNC(=O)C2CCCCC2)cc1`, the logD in series [2] is 1.08. In series [3], the Kb worked out at 7.6e+06 M⁻¹.

Compound `CCNC(=O)c1ccc(S(N)(=O)=O)cc1` gave a logD in series [2] of 0.176. The compound also came in with a Kb in series [3] of 5.9e+06 M⁻¹. As for `CC(=O)NCc1ccc(S(N)(=O)=O)cc1`, in series [1], the pKa turned out to be 10.2.

`CN(C)C(=O)c1ccc(S(N)(=O)=O)cc1` showed a logD in series [2] of 0.146. In addition, the Kb in series [3] came out at 1.1e+07 M⁻¹. In series [2], `CC(C)(C)CC(=O)NCc1ccc(S(N)(=O)=O)cc1` showed a logD of 1.04. The same compound registered a Kb in series [3] of 7.1e+06 M⁻¹. The corresponding values for `NS(=O)(=O)c1ccc(CNC(=O)CC2CCCC2)cc1` are 1.08 and 7.6e+06 M⁻¹. The like results for `NS(=O)(=O)c1ccc(CNC(=O)C2CCCC2)cc1` were, in that order, 0.778 and 6e+06 M⁻¹.

Take `CCC(=O)NCc1ccc(S(N)(=O)=O)cc1`: in series [1], the pKa was found to be 9.9.

For the compound `NS(=O)(=O)c1ccc(CNC(=O)CCC2CCCC2)cc1`, the logD in series [2] was 1.63. In series [3], this compound yielded a Kb of 1.2e+07 M⁻¹. The corresponding values for `NS(=O)(=O)c1ccc(C(=O)NCC(F)(F)C(F)(F)F)cc1` are 1.52 and 1.8e+08 M⁻¹. The like results for `CCCNC(=O)c1ccc(S(N)(=O)=O)cc1` were, in that order, 0.531 and 2.6e+07 M⁻¹.

As for `CCN(CC)C(=O)c1ccc(S(N)(=O)=O)cc1`, the logD in series [2] is 0.929. In series [3], this compound displayed a Kb of 1.7e+07 M⁻¹.

Take `CCCCNC(=O)c1ccc(S(N)(=O)=O)cc1`: the logD in series [2] is 1.11. This compound also yielded a Kb in series [3] of 6.3e+07 M⁻¹. The like results for `CCCC(C)CC(=O)NCc1ccc(S(N)(=O)=O)cc1` (centres undefined) were, in that order, 1.32 and 5.7e+06 M⁻¹.

Compound `CCCCCCCC(=O)NCc1ccc(S(N)(=O)=O)cc1` had a logD in series [2] of 1.84. Further, the Kb in series [4] came out at 1.2e+07 M⁻¹. `CC1(C)C(C(=O)NCc2ccc(S(N)(=O)=O)cc2)C1(C)C` showed a logD in series [2] of 1.57. Further, the Kb in series [3] was determined as 1.1e+07 M⁻¹. The corresponding values for `CCCN(CCC)C(=O)c1ccc(S(N)(=O)=O)cc1` are 2.08 and 1.9e+07 M⁻¹. In the case of `CCCCCCC(=O)NCc1ccc(S(N)(=O)=O)cc1`, the logD in series [2] is 1.46. This compound also gave a Kb in series [3] of 5.7e+06 M⁻¹.

By pKa is commonly meant the negative logarithm of the acid dissociation constant. For orientation: logD means lipophilicity at a set pH, counting ionised and neutral species. Read a high logD as higher lipophilicity.
